From PMC12785453, “Oral Fluid Concentrations and Pharmacological Effects of Clephedrone and Methylone in Humans” (International Journal of Molecular Sciences, 2025)

Test system: healthy male participants
Test: Subjective effects, VESSPA-SSE, methylone trial
Format: in vivo, humans
Details: 150 or 200 mg oral
Description: Methylone pharmacology was evaluated in a study designed as a randomized, double-blind, placebo-controlled, crossover clinical trial. Four pilot studies were conducted administering methylone at oral doses of 50 (n = 3), 100 (n = 6), 150 (n = 5), and 200 mg (n = 7). Participants attended 3 experimental sessions separated by a one-week wash-out period and received two doses of methylone (one dose per experimental session) compared to placebo, except in the last pilot study in which participants received one dose of methylone, compared to MDMA and placebo. However, in this manuscript, only the results corresponding to the highest methylone doses (n = 12; 150 and 200 mg; mean dose = 179.2 mg) are presented, to enable comparison with clephedrone self-administration. Participants were recruited by word of mouth in the volunteer database of the clinical pharmacology unit.
Methylone hydrochloride of high purity in powder form was acquired from LGC Standards (Teddington, UK) for the controlled study. The Pharmacy Department of the Hospital Universitari Germans Trias i Pujol was responsible for manufacturing, storing, and dispensing identical and opaque soft gelatin capsules containing 50 mg of methylone or a placebo (maltodextrin). Treatment consisted of 5 capsules that combined methylone and/or a placebo to reach the target dose. Details can be found in the previous article.
Subjective effects were evaluated with visual analog scales (VAS), the short form of the Addiction Research Center Inventory (ARCI), and the Evaluation of Subjective Effects of Substances with Abuse Potential questionnaire (VESSPA-SSE). In addition, the Sensitivity to Drug Reinforcement Questionnaire (SDRQ) and a pharmacological identification class questionnaire were used in the controlled study administering methylone.
The VESSPA-SSE questionnaire, used to evaluate the subjective effects of stimulant drugs, The questionnaire includes 36-items and consists of six subscales that measure sedation (S), psychosomatic anxiety (ANX), changes in perception (CP), pleasure and sociability (SOC), activity and energy (ACT), and psychotic symptoms (PS).
Participants included in the naturalistic clephedrone study completed VAS at baseline, 0.50, 1, 1.5, 2, 3, 4, and 5 h, and ARCI and VESSPA at baseline, 1, 2, 3, 4, and 5 h after self-administering clephedrone. In the controlled study, VAS was performed at baseline and 0.25, 0.50, 0.75, 1, 1.5, 2, 3, 4, 6, 8, 10, and 24 h, and ARCI and VESSPA at baseline and 1, 2, 3, 4, 6, 8, and 10 h after administering methylone. Participants completed SDRQ and VAS sexual desire and arousal at baseline, 1 and 10 h, and the pharmacological class identification questionnaire at 8 h.
For statistical analysis, values of physiological (SBP, DBP, HR, and T) and subjective effects (VAS, ARCI, and VESSPA-SSE) were baseline–adjusted. Maximum effects (Emax) and the time needed to reach maximum effects (Tmax) were determined, and the area under the curve up to 5 h (AUC0–5h) for clephedrone and up to 6 h (AUC0–6h) for methylone was calculated using the trapezoidal rule. Emax and AUC values are presented as mean ± standard deviation, whereas Tmax is presented in median (range).
To find possible significant changes through the time course compared to baseline, a Dunnett multiple comparison test was carried out to compare each time point with baseline in both drug conditions. For clephedrone the comparisons were 0–0.5 h, 0–1 h, 0–1.5 h, 0–2 h, 0–3 h, 0–4 h and 0–5 h, and for methylone this analysis included 0–0.25 h, 0–0.5 h, 0–0.75 h, 0–1 h, 0–1.5 h, 0–2 h, 0–3 h, 0–4 h and 0–6 h. Given their different study designs, no comparative analysis between the time courses of both synthetic cathinones was conducted.

`CNC(C)C(=O)c1ccc2c(c1)OCO2` (stereo not drawn) [Methylone, 3,4-methylenedioxy-N-methylcathinone] was tested, and the “Tmax of VESSPA subscales” value was 1 h, the “VESSPA ANX (psychosomatic anxiety) Emax” value (n=12) was 0.92 ± 0.51 points and the “VESSPA CP (changes in perception) Emax” value (n=12) was 0.00 ± 0.00 points. For the same molecule, the “VESSPA CP (changes in perception) Tmax” value (n=12) was 0.0 (0.0–0.0) h, the “VESSPA S (sedation) Emax” value (n=12) was 0.56 ± 0.59 points and the “VESSPA SOC (pleasure and sociability) Emax” value (n=12) was 1.24 ± 1.56 points. For the same molecule, the “VESSPA-ACT (activity and energy) Emax” value (n=12) was 0.82 ± 0.84 points, the “VESSPA-PS (psychotic symptoms) Emax” value (n=12) was 0.06 ± 0.11 points and the “VESSPA SOC (pleasure and sociability) Emax” value (n=12, listed as methylone) was “higher than 1 points”. The “VESSPA ANX (psychosomatic anxiety) AUC0-5/6 h” value (AUC0–6h, n=12) was 2.51 ± 2.22 points·h, the “VESSPA CP (changes in perception) AUC0-5/6 h” value (AUC0–6h, n=12) was 0.00 ± 0.00 points·h and the “VESSPA S (sedation) AUC0-5/6 h” value (AUC0–6h, n=12) was 1.39 ± 1.96 points·h. For the same molecule, the “VESSPA SOC (pleasure and sociability) AUC0-5/6 h” value (AUC0–6h, n=12) was 1.63 ± 2.13 points·h, the “VESSPA-ACT (activity and energy) AUC0-5/6 h” value (AUC0–6h, n=12) was 1.02 ± 1.08 points·h and the “VESSPA-PS (psychotic symptoms) AUC0-5/6 h” value (AUC0–6h, n=12) was 0.10 ± 0.24 points·h.
